Experimental data as given in ChEMBL document CHEMBL1201862, “PubChem BioAssay data set” (2004).
The source made the active and inactive calls.

Tests used:
Nonstructural protein 1 = Nonstructural protein 1 (Influenza A virus, UniProt Q194T2); type: functional, Influenza A virus (A/California/07/2009(H1N1))
[1] = molecular target: Glyceraldehyde-3-phosphate dehydrogenase (Homo sapiens, UniProt P04406)
Vero [2] = assay: cells; type: functional; settings: Chlorocebus sabaeus
Vero [3] = assay: cells; type: functional, cell-based; settings: Chlorocebus sabaeus
Coagulation factor XII = molecular target: T1, Coagulation factor XII (Homo sapiens, UniProt P00748); type: functional;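 note: activated factor XIIa alpha cleaving a fluorogenic AMC peptide substrate; inhibitor potency from loss of enzyme activity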
T1 sequence (P00748 whole entry): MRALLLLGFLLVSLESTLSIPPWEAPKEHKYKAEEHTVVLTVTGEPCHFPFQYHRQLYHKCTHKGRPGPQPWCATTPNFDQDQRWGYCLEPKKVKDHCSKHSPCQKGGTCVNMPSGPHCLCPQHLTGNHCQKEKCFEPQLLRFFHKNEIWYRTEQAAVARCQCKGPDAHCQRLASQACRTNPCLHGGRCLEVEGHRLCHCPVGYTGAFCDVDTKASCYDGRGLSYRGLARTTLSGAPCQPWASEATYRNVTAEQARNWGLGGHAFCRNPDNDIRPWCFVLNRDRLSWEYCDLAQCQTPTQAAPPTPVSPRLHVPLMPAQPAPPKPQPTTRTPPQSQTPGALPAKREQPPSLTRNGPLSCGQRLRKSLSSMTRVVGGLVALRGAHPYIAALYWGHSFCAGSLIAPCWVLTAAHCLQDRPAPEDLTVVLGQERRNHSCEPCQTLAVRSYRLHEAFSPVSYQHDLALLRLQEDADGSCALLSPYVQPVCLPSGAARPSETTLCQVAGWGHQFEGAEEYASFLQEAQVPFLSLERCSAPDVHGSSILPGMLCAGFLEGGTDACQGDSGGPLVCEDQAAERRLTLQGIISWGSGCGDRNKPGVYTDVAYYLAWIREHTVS

[4] = molecular target: FAD-linked sulfhydryl oxidase ALR (Homo sapiens, UniProt P55789); assay: inhibitors of human ALR sulfhydryl oxidase, dose response, biochemical, H2O2 detection, luminescence, cherry-pick (AID 493248)
FAD-linked sulfhydryl oxidase ALR, sequence (P55789 whole entry): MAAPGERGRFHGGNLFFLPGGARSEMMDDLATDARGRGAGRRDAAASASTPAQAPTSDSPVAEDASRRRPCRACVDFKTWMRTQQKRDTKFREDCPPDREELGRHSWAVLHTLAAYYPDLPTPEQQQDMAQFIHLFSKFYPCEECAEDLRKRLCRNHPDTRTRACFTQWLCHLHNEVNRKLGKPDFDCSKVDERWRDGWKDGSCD

Cytochrome P450 2D6 = Cytochrome P450 2D6 (Homo sapiens, UniProt P10635);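 note: CYP2D6 member of a cytochrome P450 panel assay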
Cytochrome P450 2D6, sequence (P10635 whole entry): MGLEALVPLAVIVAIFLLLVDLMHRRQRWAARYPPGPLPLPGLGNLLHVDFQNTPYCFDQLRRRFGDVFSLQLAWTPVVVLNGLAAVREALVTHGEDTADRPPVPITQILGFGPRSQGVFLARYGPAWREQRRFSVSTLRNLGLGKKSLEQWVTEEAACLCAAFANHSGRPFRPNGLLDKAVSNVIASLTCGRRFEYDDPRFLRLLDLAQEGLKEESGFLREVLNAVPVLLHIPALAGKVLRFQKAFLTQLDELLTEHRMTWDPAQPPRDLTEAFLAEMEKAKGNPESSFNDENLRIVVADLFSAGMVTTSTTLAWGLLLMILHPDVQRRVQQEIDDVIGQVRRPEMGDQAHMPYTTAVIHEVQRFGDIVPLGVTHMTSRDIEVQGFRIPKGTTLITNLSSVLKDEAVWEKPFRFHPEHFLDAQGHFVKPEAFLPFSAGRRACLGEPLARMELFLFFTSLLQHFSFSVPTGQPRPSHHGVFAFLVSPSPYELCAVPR

Cytochrome P450 2C19 = Cytochrome P450 2C19 (Homo sapiens, UniProt P33261); assay: Cytochrome panel assay with activity outcomes. Panel member name: p450-cyp2c19 Compounds with AC50 equal or less than 10 uM are considered active; type: functional; settings: read-out: AC50
Cytochrome P450 2C19, sequence (P33261 whole entry): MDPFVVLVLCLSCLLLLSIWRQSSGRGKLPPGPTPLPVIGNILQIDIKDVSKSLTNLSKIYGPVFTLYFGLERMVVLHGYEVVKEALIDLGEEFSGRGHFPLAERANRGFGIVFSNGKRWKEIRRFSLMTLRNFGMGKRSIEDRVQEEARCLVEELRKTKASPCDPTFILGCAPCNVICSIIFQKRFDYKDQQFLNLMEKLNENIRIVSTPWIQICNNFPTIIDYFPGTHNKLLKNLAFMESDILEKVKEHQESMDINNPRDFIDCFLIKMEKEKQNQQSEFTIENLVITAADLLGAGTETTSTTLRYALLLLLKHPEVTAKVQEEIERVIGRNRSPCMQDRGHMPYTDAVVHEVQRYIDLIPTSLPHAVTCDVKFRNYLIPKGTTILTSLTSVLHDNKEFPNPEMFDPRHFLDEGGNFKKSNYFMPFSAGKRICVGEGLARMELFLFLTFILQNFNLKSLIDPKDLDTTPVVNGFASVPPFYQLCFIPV

[5] = Luminescence Cell-Based Dose Retest to Confirm Inhibitors of Cancer Stem Cells. [Related pubchem assays (depositor defined):AID2717, AID2721]; type: functional; settings: Homo sapiens
[6] = molecular target: T2, Ubiquitin-conjugating enzyme E2 N (Homo sapiens, UniProt P61088); type: functional;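 note: Dose-response confirmation in a TR-FRET assay detecting UBC13-driven polyubiquitin chain formation, inhibition measured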
T2 sequence (P61088 whole entry): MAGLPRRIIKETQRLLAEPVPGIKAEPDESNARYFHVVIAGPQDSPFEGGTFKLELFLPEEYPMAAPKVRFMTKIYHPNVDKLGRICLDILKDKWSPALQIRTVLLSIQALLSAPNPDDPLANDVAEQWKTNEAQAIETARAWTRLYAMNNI

[7] = molecular target: T3, Replicative DNA helicase DnaB (Mycobacterium tuberculosis, UniProt P9WMR3); assay: DnaB intein splicing inhibitors, dose response, biochemical, cell-free fluorescence (AID 449749); type: functional
T3 sequence (P9WMR3 whole entry): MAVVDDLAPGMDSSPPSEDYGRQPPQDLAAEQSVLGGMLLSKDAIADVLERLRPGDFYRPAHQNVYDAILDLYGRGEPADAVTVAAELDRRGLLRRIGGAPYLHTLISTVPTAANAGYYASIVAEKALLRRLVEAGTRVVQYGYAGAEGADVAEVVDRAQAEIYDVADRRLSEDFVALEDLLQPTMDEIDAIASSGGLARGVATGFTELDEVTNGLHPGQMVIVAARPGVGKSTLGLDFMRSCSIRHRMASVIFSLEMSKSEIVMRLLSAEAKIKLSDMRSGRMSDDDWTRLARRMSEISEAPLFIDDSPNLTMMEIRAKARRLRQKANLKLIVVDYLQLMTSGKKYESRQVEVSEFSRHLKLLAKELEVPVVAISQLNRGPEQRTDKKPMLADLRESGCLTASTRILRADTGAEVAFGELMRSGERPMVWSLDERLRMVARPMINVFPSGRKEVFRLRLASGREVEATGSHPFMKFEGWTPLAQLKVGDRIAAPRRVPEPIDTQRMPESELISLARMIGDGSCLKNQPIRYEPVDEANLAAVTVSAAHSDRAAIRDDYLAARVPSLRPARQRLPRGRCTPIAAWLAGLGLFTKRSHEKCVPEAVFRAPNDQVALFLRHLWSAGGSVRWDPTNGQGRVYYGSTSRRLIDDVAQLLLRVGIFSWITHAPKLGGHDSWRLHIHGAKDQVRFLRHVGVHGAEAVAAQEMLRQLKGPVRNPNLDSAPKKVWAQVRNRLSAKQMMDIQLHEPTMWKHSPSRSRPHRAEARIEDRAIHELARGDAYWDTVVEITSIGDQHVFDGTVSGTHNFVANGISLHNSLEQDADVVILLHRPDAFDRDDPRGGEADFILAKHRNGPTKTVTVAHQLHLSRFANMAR

Leucine aminopeptidase = molecular target: T4, Leucine aminopeptidase (Plasmodium falciparum 3D7, UniProt Q8IL11); assay: P. falciparum M17LAP inhibitors, primary screen, biochemical, fluorogenic H-Leu-NHMec substrate, 1536-well (AID 1619); type: functional
T4 sequence (Q8IL11 whole entry): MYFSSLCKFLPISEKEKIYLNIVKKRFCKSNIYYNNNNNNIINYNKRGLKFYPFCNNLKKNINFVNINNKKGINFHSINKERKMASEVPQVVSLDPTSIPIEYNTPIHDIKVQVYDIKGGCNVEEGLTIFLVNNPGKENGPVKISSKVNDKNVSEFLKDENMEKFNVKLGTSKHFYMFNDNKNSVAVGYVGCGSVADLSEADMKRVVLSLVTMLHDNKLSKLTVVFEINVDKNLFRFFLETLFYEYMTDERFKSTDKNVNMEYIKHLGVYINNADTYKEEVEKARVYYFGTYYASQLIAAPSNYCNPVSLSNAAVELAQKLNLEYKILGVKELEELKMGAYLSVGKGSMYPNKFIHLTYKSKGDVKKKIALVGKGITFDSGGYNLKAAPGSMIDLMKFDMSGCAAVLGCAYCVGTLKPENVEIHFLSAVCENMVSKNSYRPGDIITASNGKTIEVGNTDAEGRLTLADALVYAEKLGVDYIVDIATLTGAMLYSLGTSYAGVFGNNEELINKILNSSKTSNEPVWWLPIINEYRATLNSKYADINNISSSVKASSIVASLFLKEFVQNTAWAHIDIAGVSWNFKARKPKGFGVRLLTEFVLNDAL

Protein RecA = molecular target: T5, Protein RecA (Mycobacterium tuberculosis, UniProt P9WHJ3); assay: Fluorescence Cell-Free Homogeneous Dose Retest to Identify Inhibitors of RecA-Intein Splicing Activity. [Related pubchem assays (depositor defined):AID2097, AID2223, AID489010, AID492950]; type: functional
T5 sequence (P9WHJ3 whole entry): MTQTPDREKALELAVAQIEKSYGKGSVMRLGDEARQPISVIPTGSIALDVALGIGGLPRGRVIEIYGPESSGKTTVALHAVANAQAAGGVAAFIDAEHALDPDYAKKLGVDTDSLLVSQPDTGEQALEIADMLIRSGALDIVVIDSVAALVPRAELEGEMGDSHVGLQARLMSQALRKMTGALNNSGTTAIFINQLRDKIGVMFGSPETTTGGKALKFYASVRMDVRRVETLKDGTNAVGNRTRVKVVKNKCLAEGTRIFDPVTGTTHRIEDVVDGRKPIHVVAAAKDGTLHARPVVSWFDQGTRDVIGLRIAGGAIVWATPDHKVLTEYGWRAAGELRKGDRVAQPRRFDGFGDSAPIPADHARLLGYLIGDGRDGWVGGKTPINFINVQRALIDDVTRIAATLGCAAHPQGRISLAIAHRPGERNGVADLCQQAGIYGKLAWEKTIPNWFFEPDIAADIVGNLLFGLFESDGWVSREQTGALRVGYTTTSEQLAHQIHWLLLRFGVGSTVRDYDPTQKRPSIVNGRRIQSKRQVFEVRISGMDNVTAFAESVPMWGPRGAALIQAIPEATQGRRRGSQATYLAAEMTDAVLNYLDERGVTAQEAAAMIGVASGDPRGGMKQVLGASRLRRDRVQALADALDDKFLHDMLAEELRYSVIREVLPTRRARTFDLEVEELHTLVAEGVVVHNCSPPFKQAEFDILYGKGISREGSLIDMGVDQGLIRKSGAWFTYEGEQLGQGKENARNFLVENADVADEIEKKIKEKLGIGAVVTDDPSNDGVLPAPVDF

INS1 = assay: beta cell apoptosis inhibitors, cytokine rescue, dose response, luminescence, retest (AID 449756); type: functional, cell-based; settings: Rattus norvegicus;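 note: cell death triggered by IL-1 beta plus TNF-alpha plus IFN-gamma mixture; protective hits raise ATP signal compared with cytokine alone wells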
[8] = microbe, parasite or virus in culture; type: functional; settings: Mycobacterium tuberculosis

Nonstructural protein 1, sequence (Q194T2 whole entry): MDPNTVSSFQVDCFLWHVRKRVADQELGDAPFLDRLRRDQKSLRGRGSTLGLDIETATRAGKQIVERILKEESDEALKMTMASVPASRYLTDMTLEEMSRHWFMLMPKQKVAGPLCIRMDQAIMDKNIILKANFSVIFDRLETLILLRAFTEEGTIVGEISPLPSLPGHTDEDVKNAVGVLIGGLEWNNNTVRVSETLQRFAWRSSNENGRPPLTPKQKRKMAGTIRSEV
Glyceraldehyde-3-phosphate dehydrogenase, sequence (P04406 whole entry): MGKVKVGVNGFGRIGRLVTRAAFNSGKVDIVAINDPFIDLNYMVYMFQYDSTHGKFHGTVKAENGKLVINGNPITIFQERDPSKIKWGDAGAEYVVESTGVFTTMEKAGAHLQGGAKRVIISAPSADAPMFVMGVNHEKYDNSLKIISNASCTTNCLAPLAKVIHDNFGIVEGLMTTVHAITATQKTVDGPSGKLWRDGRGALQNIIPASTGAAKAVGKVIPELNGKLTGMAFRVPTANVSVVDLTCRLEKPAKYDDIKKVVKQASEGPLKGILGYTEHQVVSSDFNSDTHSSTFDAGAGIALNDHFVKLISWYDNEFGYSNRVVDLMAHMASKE

COc1ccc(C2C3=C(CC(C)(C)CC3=O)Oc3ncn(Cc4ccco4)c(=N)c32)cc1 (stereo not drawn)
IC50 (Nonstructural protein 1): > 100 µM (active)

O=C(Nc1nncs1)c1cccc(S(=O)(=O)N2CCCC2)c1
IC50 [1]: > 100 µM (not active)

O=C(NCCCN1CCCC1)c1ccc2c(Cl)c3c(nc2c1)CCCC3
CC50 (Vero [2]): > 25 µM (active) | IC50 (Vero [3]): > 25 µM (active) | IC50 (Coagulation factor XII): > 50 µM (inconclusive) | AC50 [4]: 0.01 µM (active)

Cc1sc(N/N=C/c2cccnc2)nc1-c1ccccc1
CC50 (Vero [2]): > 25 µM (active) | IC50 (Vero [3]): > 25 µM (active) | AC50 (Cytochrome P450 2D6): 0.794 µM (inconclusive) | AC50 (Cytochrome P450 2C19): 0.501 µM (inconclusive)

CCCCCc1cc(=O)oc2c(C(CCN(CC)CC)c3cc(OC)c(OC)c(OC)c3)c(OC)cc(OC)c12 (stereo not drawn)
AC50 [5]: 7.71 µM (active) | IC50 [6]: > 20 µM (inactive)

CCOc1ccc(C(C(=O)NCC2CCCO2)N(C(=O)c2snc(C(N)=O)c2N)c2ccc3c(c2)OCCO3)cc1 (stereo not drawn)
IC50 [6]: > 20 µM (inactive)

O=[N+]([O-])c1cccc(-c2cn3c([n+]2-c2ccccc2)SCC3)c1
IC50 (Vero [3]): 5.3 µM (active)

CC1=NN(CCC#N)C(=O)/C1=C/c1ccc(N(C)C)cc1
AC50 [7]: 2.79 µM (inconclusive) | IC50 (Leucine aminopeptidase): 120 µM (active) | EC50 (Protein RecA): 3.17 µM (active)

Cc1ccc2ccc3cccnc3c2n1
AC50 (INS1): 0.865 µM (active) | IC50 (Nonstructural protein 1): 14.5 µM (active)

Nc1nc(C2CC2)c(Sc2sc(N)nc2C2CC2)s1
IC50 (Vero [3]): > 25 µM (active) | AC50 [4]: 0.511 µM (active)

CCOC(=O)c1ccc(NC(=O)c2[nH]cnc2C(=O)NC2CCN(C(=O)OC(C)(C)C)CC2)cc1
IC50 [6]: > 20 µM (inactive)

Cc1ccc(CNC(=O)CSc2nc3ccsc3c(=O)n2Cc2ccc(C(=O)O)cc2)cc1
IC50 [6]: > 20 µM (inactive)

COc1cccc(S(=O)(=O)Nc2cnc3ccccc3c2)c1
IC50 [1]: > 100 µM (not active)

CCn1c(C)nc2cc(C(=O)OC(C(F)(F)C(F)F)C(F)(F)C(F)F)ccc21
CC50 (Vero [2]): > 25 µM (active) | IC50 (Vero [3]): 24.4 µM (active) | CC50 [8]: > 40 µM (active)

Oc1ccc(C=NNC(=S)Nc2cccnc2)nc1
IC50 (Nonstructural protein 1): 0.992 µM (active)
